Reference: patent US5922719A, “Coumarin dopamine D4 receptor antagonists” (priority 1997, dated 1999)
Structures can show the parent of a compound that is named as a salt. Where two headings read alike, the source gives them in different places.

How the values were obtained:
[1] = molecular target: T1, human recombinant dopamine D4.2 receptor (Homo sapiens, UniProt P21917, DEL265-296); assay: [3H]spiperone receptor binding assay, D4.2 (CHO K1 membranes); details: [3H]spiperone 0.2 nM, human D4.2, CHO K1 membranes, 60 minutes at 25° C.
T1 construct: expressed in transfected cells
T1 sequence (P21917 with tags, fused parts or gaps DEL265-296): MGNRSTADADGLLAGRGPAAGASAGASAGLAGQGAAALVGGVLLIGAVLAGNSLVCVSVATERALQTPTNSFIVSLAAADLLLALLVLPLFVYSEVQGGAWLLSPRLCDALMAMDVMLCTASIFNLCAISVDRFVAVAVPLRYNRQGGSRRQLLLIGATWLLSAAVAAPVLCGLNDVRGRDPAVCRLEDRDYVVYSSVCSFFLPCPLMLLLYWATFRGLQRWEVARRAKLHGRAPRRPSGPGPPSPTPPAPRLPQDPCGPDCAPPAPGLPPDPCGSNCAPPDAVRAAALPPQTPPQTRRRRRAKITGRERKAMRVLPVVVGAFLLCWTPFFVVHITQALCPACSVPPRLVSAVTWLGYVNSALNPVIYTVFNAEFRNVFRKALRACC
From the text: (§1) A cell line expressing human dopamine D2 (Long form) receptors was purchased from Oregon Health Sciences University, Portland, Ore. The D2 receptor cDNA was subcloned into an expression vector, pRc/CMV. The plasmids were transfected by electroporation into CHO K1 cells. A single stable transfectant, resistant to the antibiotic G418, was isolated and selected for use in the binding studies. For D4 binding, CHO K1 cells stably transfected to express the human recombinant dopamine D4.2 receptor subtype, as described by Shih, et al., "The expression and functional characterization of human dopamine D4.2 receptor in CHO K1 cells," Soc.
(§2) Cells were grown until confluent, after which growth medium was removed and replaced with 0.02% ethylene diamine tetracetate (EDTA) in a phosphate-buffered saline solution (Sigma Chemical Co; St. Louis, Mo.) and scraped from the flasks. The cells were centrifuged at about 1000×g for 10 minutes at 40° C. and then resuspended in TEM buffer (25 mM Tris-HCL, pH 7.4, 5 mM EDTA, and 6 mM MgCl2) for D2 or the D4.2 buffer (50 mM Tris-HCl, pH 7.4, 5 mM EDTA, 1.5 mM CaCl2, 5 mM KCl, and 120 mM NaCl) and homogenized. The membranes were pelleted by centrifugation at 20,000×g at 40° C. for 20 minutes. Then the pellets were resuspended in an appropriate buffer at 1 mL/flask and stored at -70° C. until used in the receptor binding assay.
After 60 minutes incubation at 25° C., the incubations were terminated by rapid filtration through Whatmann GF/B glass fibre filters (soaked for 1 hour in 0.5% polyethylenimine) on a -cell harvester, with three washes of 1 mL ice-cold buffer. […] Nonspecific binding was defined in presence of 1 mM of haloperidol.
(§3) Saturation and competition binding data were analyzed using an iterative nonlinear least-square curve-fitting Ligand program. […] Experimental compounds were made up as stock solutions in dimethyl sulfoxide (DMSO). […] Each observation was carried out in triplicate. To allow these calculations, Kd values were measured for the interaction of various ligands with the receptor. […]

[2] = molecular target: human dopamine D2 (Long form) receptor (Homo sapiens, UniProt P14416); assay: [3H]spiperone receptor binding assay, D2 (Long form) (CHO K1 membranes)
human dopamine D2 (Long form) receptor, sequence (P14416 whole entry): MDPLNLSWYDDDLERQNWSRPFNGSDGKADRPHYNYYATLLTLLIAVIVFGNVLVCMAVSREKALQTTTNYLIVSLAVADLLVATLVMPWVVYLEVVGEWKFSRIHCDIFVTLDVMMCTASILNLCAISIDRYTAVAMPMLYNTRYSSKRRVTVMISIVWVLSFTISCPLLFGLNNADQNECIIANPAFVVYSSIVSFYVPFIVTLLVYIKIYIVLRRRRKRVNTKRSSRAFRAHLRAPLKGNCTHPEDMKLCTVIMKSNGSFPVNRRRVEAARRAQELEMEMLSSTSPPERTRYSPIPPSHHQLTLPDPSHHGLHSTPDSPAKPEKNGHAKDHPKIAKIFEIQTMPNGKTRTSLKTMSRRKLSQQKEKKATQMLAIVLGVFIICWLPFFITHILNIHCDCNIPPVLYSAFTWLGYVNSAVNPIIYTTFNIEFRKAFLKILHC
From the text: as §1, with “Soc. Neurosci., 1995;21(Part 1):621.” for “Soc.”
as §2, with “CHO K1 cells expressing either human D2 and D4.2 receptors were grown in 162 cm^2 culture flasks in F12 medium (Gibco Laboratories, Grand Island, N.Y.) supplemented with 10% fetal bovine serum (FBS, Hyclone, Logan, UT) in an atmosphere of 5% Co2 /95% air at 37° C. Cells” for “Cells”
After 60 minutes incubation at 25° C., the incubations were terminated by rapid filtration through Whatmann GF/B glass fibre filters (soaked for 1 hour in 0.5% polyethylenimine) on a -cell harvester, with three washes of 1 mL ice-cold buffer. Individual filter disks containing the bound ligand were placed in counting vials with 4 mL of scintillation fluid (Ready Gel, Beckman Instrument Inc, Fullerton, Calif.) and then counted in a Beckman LS-6800 liquid scintillation counter at an efficiency of 45%. Nonspecific binding was defined in presence of 1 mM of haloperidol.
as §3

[3] = [3H]spiperone 0.2 nM, human D2 (Long form), CHO K1 membranes, 60 minutes at 25° C., read-out: D2 Ki

| Compound | Ki ([1]; D4 Ki) [nM] | Ki [2] [nM] | Ki ([1]; read-out: D4 Ki) [nM] | Ki [2, 3] [nM] |
| --- | --- | --- | --- | --- |
| Cc1ccc(N2CCN(Cc3ccc4ccc(=O)oc4c3)CC2)cc1Cl [Example 1, 7-[4-(3-Chloro-4-methyl-phenyl)-piperazin-1-ylmethyl]-chromen-2-one] | 6.9 | > 5880 | – | – |
| O=c1ccc2ccc(CN3CCN(c4ccc(CO)c(Cl)c4)CC3)cc2o1 [Example 2, 7-[4-(3-Chloro-4-hydroxymethyl-phenyl)-piperazin-1-ylmethyl]-chromen-2-one] | – | – | 11 | 10600 |
| Cc1ccc(N2CCN(Cc3ccc4ccc(=O)oc4c3)CC2)cc1C [Example 3, 7-[4-(3,4-Dimethyl-phenyl)-piperazin-1-ylmethyl]-chromen-2-one] | 13.9 | – | – | 433 |
| Cc1ccccc1N1CCN(Cc2ccc3ccc(=O)oc3c2)CC1 [Example 4, 7-(4-o-Tolyl-piperazin-1-ylmethyl)-chromen-2-one] | 16.3 | – | – | 1940 |
| O=c1ccc2ccc(CN3CCN(c4ccccc4Cl)CC3)cc2o1 [Example 5, 7-[4-(2-Chloro-phenyl)-piperazin-1-ylmethyl]-chromen-2-one] | – | – | 16.8 | 635 |
| O=c1ccc2ccc(CN3CCC(c4ccccc4)CC3)cc2o1 [Example 7, 7-(4-Phenyl-piperidin-1-ylmethyl)-chromen-2-one] | 18 | – | – | – |
| Cc1cccc(N2CCN(Cc3ccc4ccc(=O)oc4c3)CC2)c1C [Example 8, 7-[4-(2,3-Dimethyl-phenyl)-piperazin-1-ylmethyl]-chromen-2-one] | – | – | 19 | 688 |
| O=c1ccc2ccc(CN3CCN(c4cccc(Cl)c4)CC3)cc2o1 [Example 9, 7-[4-(3-Chloro-phenyl)-piperazin-1-ylmethyl]-chromen-2-one] | – | – | 23 | > 10000 |
| O=c1ccc2ccc(CN3CCN(c4cccc(C(F)(F)F)c4)CC3)cc2o1 [Example 10, 7-[4-(3-Trifluoromethyl-phenyl)-piperazin-1-ylmethyl]-chromen-2-one] | – | – | 24 | 5880 |
| O=Cc1ccc(N2CCN(Cc3ccc4ccc(=O)oc4c3)CC2)cc1Cl [Example 11, 2-Chloro-4-[4-(2-oxo-2H-chromen-7-ylmethyl)-piperazin-1-yl]-benzaldehyde] | – | – | 24.6 | > 5880 |
| Cc1ccc(C2CCN(Cc3ccc4ccc(=O)oc4c3)CC2)cc1 [Example 12, 7-(4-p-Tolyl-piperidin-1-ylmethyl)-chromen-2-one] | – | – | 25.7 | – |
| O=c1ccc2ccc(CN3CCN(c4ccccc4)CC3)cc2o1 [Example 13, 7-(4-Phenyl-piperazin-1-ylmethyl)-chromen-2-one] | 26 | – | – | 5340 |
| O=c1ccc2ccc(CN3CCN(c4cccc([N+](=O)[O-])c4)CC3)cc2o1 [Example 14, 7-[4-(3-Nitro-phenyl)-piperazin-1-ylmethyl]-chromen-2-one] | – | – | 26 | 5880 |
| O=c1ccc2ccc(CN3CCN(c4ccc(F)c(C(F)(F)F)c4)CC3)cc2o1 [Example 15, 7-[4-(4-Fluoro-3-trifluoromethyl-phenyl)-piperazin-1-ylmethyl]-chromen-2-one] | – | – | 27.3 | 7120 |
| O=c1ccc2ccc(CN3CCN(c4ccc(CO)c(F)c4)CC3)cc2o1 [Example 16, 7-[4-(3-Fluoro-4-hydroxymethyl-phenyl)-piperazin-1-ylmethyl]-chromen-2-one] | – | – | 29.9 | – |
| O=c1ccc2ccc(CN3CCN(c4ccc(CO)c(Br)c4)CC3)cc2o1 [Example 19, 7-[4-(3-Bromo-4-hydroxymethyl-phenyl)-piperazin-1-ylmethyl]-chromen-2-one] | – | – | 39.5 | – |
| O=c1ccc2ccc(CN3CCN(c4ccc5ccccc5c4)CC3)cc2o1 [Example 23, 7-(4-Naphthalen-2-yl-piperazin-1-ylmethyl)-chromen-2-one] | – | – | 49.7 | – |
| O=c1ccc2ccc(CN3CCN(c4ccc(F)cc4)CC3)cc2o1 [Example 24, 7-[4-(4-Fluoro-phenyl)-piperazin-1-ylmethyl]-chromen-2-one] | 59 | – | – | – |
| COc1ccc(N2CCN(Cc3ccc4ccc(=O)oc4c3)CC2)cc1 [Example 26, 7-[4-(4-Methoxy-phenyl)-piperazin-1-ylmethyl]-chromen-2-one] | 75 | – | – | – |
| CCCSc1cccc(N2CCN(Cc3ccc4ccc(=O)oc4c3)CC2)c1 [Example 27, 7-[4-(3-Propylsulfanyl-phenyl)-piperazin-1-ylmethyl]-chromen-2-one] | – | – | 91 | – |
| O=c1ccc2ccc(CN3CCN(c4ccc(Cl)cc4)CC3)cc2o1 [Example 28, 7-[4-(4-Chloro-phenyl)-piperazin-1-ylmethyl]-chromen-2-one] | – | – | 93 | – |
| Cc1c(Cl)cccc1N1CCN(Cc2ccc3ccc(=O)oc3c2)CC1 [Example 29, 7-[4-(3-Chloro-2-methyl-phenyl)-piperazin-1-ylmethyl]-chromen-2-one] | – | – | 128 | – |
| O=c1ccc2ccc(CN3CCN(Cc4ccccc4)CC3)cc2o1 [Example 30, 7-(4-Benzyl-piperazin-1-ylmethyl)-chromen-2-one] | 2660 | – | – | – |
| COc1cc(N2CCN(Cc3ccc4ccc(=O)oc4c3)CC2)cc(OC)c1OC [Example 31, 7-[4-(3,4,5-Trimethoxy-phenyl)-piperazin-1-ylmethyl]-chromen-2-one] | – | – | > 2000 | – |
| O=c1ccc2ccc(CN3CCN(c4ncccn4)CC3)cc2o1 [Example 32, 2H-1-Benzopyran-2-one, 7-[[4-(2-pyrimidinyl)-1-piperazinyl]methyl]-, dihydrochloride] | – | – | 5000 | – |
| O=c1ccc2cc(CN3CCN(c4cccc(Cl)c4Cl)CC3)ccc2o1 [Example 45] | – | – | 41 | – |
| O=c1ccc2cc(CN3CCN(c4ccc(F)cc4)CC3)ccc2o1 [Example 46, 6-[4-(4-Fluoro-phenyl)-piperazin-1-ylmethyl]-chromen-2-one] | – | – | 41 | – |
| Cc1cccc(N2CCN(Cc3ccc4oc(=O)ccc4c3)CC2)c1 [Example 49, 6-(4-m-Tolyl-piperazin-1-ylmethyl)-chromen-2-one] | 74 | – | – | – |
| O=c1ccc2cc(CN3CCN(c4ncccn4)CC3)ccc2o1 [Example 50, 2H-1-Benzopyran-2-one, 6-[[4-(2-pyrimidinyl)-1-piperazinyl]methyl]-] | – | – | 163 | – |
| COc1cc(N2CCN(Cc3ccc4oc(=O)ccc4c3)CC2)cc(OC)c1OC [Example 51, 6-[4-(3,4,5-Trimethoxy-phenyl)-piperazin-1-ylmethyl]-chromen-2-one] | – | – | 316 | – |
